Assays:
[1] = biological target: Cyclin-dependent kinase 8 (Homo sapiens, UniProt P49336); experiment: Selectivity interaction (KinomeScan (DiscoverX)) EUB0000229b CDK8; details: at 10 µM
[2] = biological target: T1, Receptor-interacting serine/threonine-protein kinase 1 (Homo sapiens) (UniProt Q13546); experiment: Selectivity interaction (KinomeScan (DiscoverX)) EUB0000229b RIPK1; details: at 10 µM
T1 sequence (whole entry): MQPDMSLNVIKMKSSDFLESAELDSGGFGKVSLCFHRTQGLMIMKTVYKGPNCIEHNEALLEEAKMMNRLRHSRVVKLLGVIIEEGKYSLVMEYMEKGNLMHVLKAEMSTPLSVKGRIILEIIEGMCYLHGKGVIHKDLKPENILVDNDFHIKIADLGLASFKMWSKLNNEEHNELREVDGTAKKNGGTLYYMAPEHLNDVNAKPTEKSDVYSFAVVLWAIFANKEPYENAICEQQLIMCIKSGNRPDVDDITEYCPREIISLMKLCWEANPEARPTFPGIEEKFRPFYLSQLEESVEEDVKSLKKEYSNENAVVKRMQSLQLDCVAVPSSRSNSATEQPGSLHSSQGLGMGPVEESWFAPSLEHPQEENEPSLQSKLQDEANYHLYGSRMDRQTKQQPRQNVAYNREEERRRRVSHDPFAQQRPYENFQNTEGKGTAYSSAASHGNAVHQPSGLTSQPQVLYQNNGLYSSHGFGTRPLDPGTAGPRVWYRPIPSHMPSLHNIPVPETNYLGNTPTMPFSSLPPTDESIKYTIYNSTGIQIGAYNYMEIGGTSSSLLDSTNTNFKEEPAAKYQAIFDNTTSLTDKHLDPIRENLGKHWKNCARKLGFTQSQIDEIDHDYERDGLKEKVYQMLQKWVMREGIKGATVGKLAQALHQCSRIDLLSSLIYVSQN

[3] = biological target: Eukaryotic translation initiation factor 2-alpha kinase 1 (Homo sapiens) (UniProt Q9BQI3); experiment: Selectivity interaction (KinomeScan (DiscoverX)) EUB0000595a EIF2AK1; details: at 10 µM
[4] = biological target: Tyrosine-protein kinase JAK1 (Homo sapiens, UniProt P23458); experiment: Selectivity interaction (KinomeScan (DiscoverX)) EUB0000045b JAK1
[5] = tested on: Epidermal growth factor receptor (Homo sapiens), P00533 [L858R]; details: at 10 µM
[6] = biological target: Cholecystokinin receptor type A (Homo sapiens) (UniProt P32238); experiment: Selectivity interaction (Panel of non-epigenetic targets (kinases, GPCRs, ion channels, and transporters, Eurofins) ) EUB0000271b CCKAR; details: at 1 µM
[7] = biological target: Neuropeptide Y receptor type 1 (Homo sapiens, UniProt P25929); experiment: Selectivity interaction (Neuropeptide Y Y1 receptor binding assay, human recombinant ) EUB0000877a NPY1R
[8] = biological target: T2, Serine/threonine-protein kinase Sgk1 (Homo sapiens) (UniProt O00141); experiment: Selectivity interaction (ProQinase) EUB0000171b SGK1
T2 sequence (whole entry): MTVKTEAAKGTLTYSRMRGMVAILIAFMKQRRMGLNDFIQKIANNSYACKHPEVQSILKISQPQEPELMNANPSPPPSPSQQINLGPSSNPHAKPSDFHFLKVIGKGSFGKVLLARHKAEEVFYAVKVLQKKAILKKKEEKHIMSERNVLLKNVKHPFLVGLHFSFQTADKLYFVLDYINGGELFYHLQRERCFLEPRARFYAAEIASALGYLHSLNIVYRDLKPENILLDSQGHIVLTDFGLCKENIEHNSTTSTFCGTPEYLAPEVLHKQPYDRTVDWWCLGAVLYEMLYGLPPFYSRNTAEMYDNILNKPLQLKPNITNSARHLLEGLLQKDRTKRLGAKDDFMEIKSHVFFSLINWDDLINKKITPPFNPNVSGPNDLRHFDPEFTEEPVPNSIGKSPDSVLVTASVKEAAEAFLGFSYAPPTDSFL

[9] = biological target: T3, Serine/threonine-protein kinase VRK1 (Homo sapiens) (UniProt Q99986); experiment: Selectivity interaction (ProQinase) EUB0000171b VRK1
T3 sequence (whole entry): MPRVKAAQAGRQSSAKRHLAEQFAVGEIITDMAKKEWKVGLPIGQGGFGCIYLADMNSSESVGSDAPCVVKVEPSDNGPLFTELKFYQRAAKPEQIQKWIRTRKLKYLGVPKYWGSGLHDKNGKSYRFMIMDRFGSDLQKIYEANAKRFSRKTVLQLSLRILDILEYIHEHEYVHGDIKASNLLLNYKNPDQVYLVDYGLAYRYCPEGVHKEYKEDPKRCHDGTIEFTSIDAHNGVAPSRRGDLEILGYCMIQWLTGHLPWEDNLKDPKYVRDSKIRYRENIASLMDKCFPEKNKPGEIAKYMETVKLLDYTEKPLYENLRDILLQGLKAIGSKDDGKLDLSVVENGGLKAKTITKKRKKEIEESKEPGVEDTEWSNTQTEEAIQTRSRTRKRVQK

[10] = biological target: Ribosomal protein S6 kinase beta-1 (Homo sapiens, UniProt P23443); experiment: Selectivity interaction (ActivX KiNativ screen (ex vivo kinase selectivity in human PBMCs)) EUB0001619a RPS6KB1; assay type: cell-based; details: PBMC, at 1 µM
[11] = tested on: Mast/stem cell growth factor receptor Kit (Homo sapiens), P10721 [D816H]; experiment: (§1) Selectivity interaction (KinomeScan (DiscoverX)) EUB0000607a KIT; details: at 10 µM
[12] = tested on: Mast/stem cell growth factor receptor Kit (Homo sapiens), P10721 [V559D,T670I]; experiment: as §1; details: at 10 µM
[13] = biological target: Mast/stem cell growth factor receptor Kit (Homo sapiens, UniProt P10721); experiment: as §1; details: at 10 µM
[14] = tested on: Mast/stem cell growth factor receptor Kit (Homo sapiens), P10721 [A829P]; experiment: as §1; details: at 10 µM
[15] = tested on: Mast/stem cell growth factor receptor Kit (Homo sapiens), P10721 [D816V]; experiment: as §1; details: at 10 µM
[16] = tested on: Mast/stem cell growth factor receptor Kit (Homo sapiens), P10721 [V559D]; experiment: as §1; details: at 10 µM
[17] = tested on: Mast/stem cell growth factor receptor Kit (Homo sapiens), P10721 [L576P]; experiment: as §1; details: at 10 µM
[18] = tested on: Mast/stem cell growth factor receptor Kit (Homo sapiens), P10721 [V559D,V654A]; experiment: as §1; details: at 10 µM
[19] = tested on: Tyrosine-protein kinase ABL1 (Homo sapiens), P00519 [T315I]; experiment: (§2) Selectivity interaction (Ambit KINOMEscan and KiNATiv profiling in Jurkat cells) EUB0000090b ABL1; assay type: cell-based; details: at 1 µM
[20] = tested on: Tyrosine-protein kinase ABL1 (Homo sapiens), P00519 [F317I]; experiment: as §2; assay type: cell-based; details: at 1 µM
[21] = tested on: Tyrosine-protein kinase ABL1 (Homo sapiens), P00519 [M351T]; experiment: as §2; assay type: cell-based; details: at 1 µM
[22] = tested on: Tyrosine-protein kinase ABL1 (Homo sapiens), P00519 [F317L]; experiment: as §2; assay type: cell-based; details: at 1 µM
[23] = tested on: Tyrosine-protein kinase ABL1 (Homo sapiens), P00519 [Y253F]; experiment: as §2; assay type: cell-based; details: at 1 µM
[24] = tested on: Tyrosine-protein kinase ABL1 (Homo sapiens), P00519 [E255K]; experiment: as §2; assay type: cell-based; details: at 1 µM
[25] = biological target: Tyrosine-protein kinase ABL1 (Homo sapiens, UniProt P00519); experiment: as §2; assay type: cell-based; details: at 1 µM

Tyrosine-protein kinase JAK1, sequence (P23458 whole entry): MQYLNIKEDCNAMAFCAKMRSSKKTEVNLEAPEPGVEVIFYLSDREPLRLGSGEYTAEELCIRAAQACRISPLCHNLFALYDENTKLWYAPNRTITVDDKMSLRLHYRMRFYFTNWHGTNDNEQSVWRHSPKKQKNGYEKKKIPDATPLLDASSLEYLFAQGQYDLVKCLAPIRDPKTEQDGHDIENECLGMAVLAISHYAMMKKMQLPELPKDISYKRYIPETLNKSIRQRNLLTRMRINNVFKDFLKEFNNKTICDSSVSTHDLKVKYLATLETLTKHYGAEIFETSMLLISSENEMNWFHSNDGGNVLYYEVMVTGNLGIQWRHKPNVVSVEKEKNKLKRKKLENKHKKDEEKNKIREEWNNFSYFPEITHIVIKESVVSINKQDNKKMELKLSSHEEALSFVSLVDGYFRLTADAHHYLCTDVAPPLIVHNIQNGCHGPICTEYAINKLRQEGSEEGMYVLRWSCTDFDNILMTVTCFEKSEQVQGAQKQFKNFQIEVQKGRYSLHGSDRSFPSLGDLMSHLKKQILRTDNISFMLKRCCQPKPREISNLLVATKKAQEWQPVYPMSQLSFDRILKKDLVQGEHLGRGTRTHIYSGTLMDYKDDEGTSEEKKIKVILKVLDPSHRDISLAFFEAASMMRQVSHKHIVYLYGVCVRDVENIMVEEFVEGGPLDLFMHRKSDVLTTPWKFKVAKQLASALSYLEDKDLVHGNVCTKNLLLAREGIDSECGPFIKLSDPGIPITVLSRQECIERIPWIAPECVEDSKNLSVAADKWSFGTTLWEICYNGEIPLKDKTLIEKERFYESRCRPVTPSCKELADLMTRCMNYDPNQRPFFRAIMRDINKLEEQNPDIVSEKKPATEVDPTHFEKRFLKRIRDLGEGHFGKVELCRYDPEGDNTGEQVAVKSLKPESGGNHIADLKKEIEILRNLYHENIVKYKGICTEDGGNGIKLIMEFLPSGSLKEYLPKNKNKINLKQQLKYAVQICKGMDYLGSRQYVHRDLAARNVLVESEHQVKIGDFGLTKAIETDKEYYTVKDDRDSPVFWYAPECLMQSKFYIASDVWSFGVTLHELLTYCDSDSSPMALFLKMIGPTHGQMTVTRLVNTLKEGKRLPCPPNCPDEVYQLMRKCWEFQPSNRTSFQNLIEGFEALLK
Cyclin-dependent kinase 8, sequence (P49336 whole entry): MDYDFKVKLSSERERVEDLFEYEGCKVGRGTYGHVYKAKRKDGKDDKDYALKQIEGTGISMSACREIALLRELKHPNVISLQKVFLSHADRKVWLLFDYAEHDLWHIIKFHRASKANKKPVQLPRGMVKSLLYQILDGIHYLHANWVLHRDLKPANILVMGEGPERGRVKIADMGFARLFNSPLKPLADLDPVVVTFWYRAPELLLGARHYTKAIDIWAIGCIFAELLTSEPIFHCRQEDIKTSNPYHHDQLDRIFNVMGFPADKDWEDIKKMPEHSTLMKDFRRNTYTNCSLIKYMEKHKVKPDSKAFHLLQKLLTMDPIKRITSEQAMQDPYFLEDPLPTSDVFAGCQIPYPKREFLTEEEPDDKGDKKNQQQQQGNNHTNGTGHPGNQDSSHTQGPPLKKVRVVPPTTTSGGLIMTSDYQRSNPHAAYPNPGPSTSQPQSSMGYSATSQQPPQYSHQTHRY
Mast/stem cell growth factor receptor Kit (Homo sapiens), P10721 [A829P], sequence (P10721 whole entry A829P): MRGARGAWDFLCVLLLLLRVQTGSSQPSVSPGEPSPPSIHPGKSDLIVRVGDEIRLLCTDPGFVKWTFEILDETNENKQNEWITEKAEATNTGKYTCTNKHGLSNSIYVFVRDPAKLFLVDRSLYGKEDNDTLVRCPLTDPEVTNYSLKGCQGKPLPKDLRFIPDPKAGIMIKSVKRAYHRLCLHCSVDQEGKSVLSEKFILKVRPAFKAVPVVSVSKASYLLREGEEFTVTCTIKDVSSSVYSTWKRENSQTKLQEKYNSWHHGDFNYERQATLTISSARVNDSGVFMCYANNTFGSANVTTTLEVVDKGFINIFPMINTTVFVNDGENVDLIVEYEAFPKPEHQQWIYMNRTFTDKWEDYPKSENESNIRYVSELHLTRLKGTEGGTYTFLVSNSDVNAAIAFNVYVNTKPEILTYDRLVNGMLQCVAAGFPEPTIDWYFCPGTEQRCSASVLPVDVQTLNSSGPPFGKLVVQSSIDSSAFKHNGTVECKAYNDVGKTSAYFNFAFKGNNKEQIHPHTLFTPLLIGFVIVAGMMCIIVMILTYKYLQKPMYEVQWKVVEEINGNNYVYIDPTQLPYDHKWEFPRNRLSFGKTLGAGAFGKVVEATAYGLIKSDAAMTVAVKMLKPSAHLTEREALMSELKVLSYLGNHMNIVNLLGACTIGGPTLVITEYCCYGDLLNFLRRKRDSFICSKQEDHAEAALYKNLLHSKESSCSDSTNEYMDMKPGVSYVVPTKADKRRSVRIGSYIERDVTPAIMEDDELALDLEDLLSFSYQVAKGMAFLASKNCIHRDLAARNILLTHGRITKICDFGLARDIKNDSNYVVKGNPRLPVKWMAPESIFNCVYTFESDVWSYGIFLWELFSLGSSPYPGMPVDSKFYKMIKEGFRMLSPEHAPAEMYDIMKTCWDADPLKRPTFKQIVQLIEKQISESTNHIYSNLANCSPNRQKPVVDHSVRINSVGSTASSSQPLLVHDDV
Mast/stem cell growth factor receptor Kit (Homo sapiens), P10721 [V559D], sequence (P10721 whole entry V559D): as the sequence (P10721 whole entry A829P) above, with V559D, P829A counted along it
Epidermal growth factor receptor (Homo sapiens), P00533 [L858R], sequence (P00533 whole entry L858R): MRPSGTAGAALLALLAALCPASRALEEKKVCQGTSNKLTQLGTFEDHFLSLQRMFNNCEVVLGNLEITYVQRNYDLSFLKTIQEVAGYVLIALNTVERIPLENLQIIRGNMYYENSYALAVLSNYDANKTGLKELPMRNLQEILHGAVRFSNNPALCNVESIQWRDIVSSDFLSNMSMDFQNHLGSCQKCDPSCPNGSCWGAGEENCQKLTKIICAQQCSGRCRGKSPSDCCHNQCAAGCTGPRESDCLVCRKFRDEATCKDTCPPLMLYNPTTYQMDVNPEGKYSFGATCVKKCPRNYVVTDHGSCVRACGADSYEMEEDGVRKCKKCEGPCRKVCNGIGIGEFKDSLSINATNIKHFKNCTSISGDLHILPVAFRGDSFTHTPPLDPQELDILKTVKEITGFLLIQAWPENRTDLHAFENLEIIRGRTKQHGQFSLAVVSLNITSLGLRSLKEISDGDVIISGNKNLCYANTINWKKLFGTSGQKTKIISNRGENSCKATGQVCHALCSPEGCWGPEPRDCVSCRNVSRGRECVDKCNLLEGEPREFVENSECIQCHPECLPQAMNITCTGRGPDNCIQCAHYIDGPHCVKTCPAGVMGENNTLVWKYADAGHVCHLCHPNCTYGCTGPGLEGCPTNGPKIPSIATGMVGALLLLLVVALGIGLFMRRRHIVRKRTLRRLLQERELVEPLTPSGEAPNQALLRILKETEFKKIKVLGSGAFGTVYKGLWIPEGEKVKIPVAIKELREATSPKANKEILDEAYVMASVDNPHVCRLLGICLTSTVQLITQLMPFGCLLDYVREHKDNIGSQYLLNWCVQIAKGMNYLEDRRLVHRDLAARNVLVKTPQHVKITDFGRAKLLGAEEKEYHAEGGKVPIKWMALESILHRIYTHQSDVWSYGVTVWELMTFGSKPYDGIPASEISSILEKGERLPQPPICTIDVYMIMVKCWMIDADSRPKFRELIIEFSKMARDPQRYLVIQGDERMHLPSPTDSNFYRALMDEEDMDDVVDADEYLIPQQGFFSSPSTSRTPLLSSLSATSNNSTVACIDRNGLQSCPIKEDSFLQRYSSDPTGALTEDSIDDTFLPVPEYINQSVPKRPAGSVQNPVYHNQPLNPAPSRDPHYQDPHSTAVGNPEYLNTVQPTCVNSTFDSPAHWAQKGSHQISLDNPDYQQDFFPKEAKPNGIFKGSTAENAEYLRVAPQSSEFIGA

COc1cc(N(C)c2ccnc3ccc(C(F)(F)F)cc23)cc(OC)c1OC
% binding [1]: 100% | % binding [2]: 98%

COCC(=O)NC/C=C/c1ccc2ncnc(Nc3ccc(Oc4ccc(C)nc4)c(C)c3)c2c1 [CP-724714]
% of control [3]: 100%

C=CC(=O)Nc1cc(-n2c(=O)ccc3cnc4ccc(-c5ccc(NS(C)(=O)=O)cc5)cc4c32)ccc1C
% of control ([4]; at 1 µM): 87% | % of control ([4]; at 10 µM): 76%

Cc1cc([C@@H](C)Nc2ccccc2C(=O)O)c2nc(N3CCOCC3)cc(=O)n2c1 [AZD-6482]
% of control [5]: 100%

Cc1cc(C)cc([C@@H]2c3cc(C)ccc3NC(=O)CN2C(=O)c2ccc(Br)s2)c1
% of inhibition [6]: 1%

CCC(=O)N1CC[C@H](Nc2ncnc3c2CN(c2cnc(OC)c(C(F)(F)F)c2)CC3)C1 [LENIOLISIB]
IC50 [7]: > 30 µM

C=CC(=O)Nc1cccc(C(=O)Nc2ccc(Nc3cc(-c4[nH]c(SC)nc4C)ccn3)cc2)c1
% of control ([8]; at 1 µM): 49% | % of control ([8]; at 5 µM): 15% | % of control ([9]; at 1 µM): 95% | % of control ([9]; at 5 µM): 97%

N#Cc1cccc(-c2c[nH]c3ncnc(N4CCOCC4)c23)c1
% of inhibition [10]: 11%

CNC(=O)Nc1ccc(-c2nc(N3CC4CCC(C3)O4)c3cnn(C4CCC5(CC4)OCCO5)c3n2)cc1
% of control [11]: 86% | % of control [12]: 100% | % of control [13]: 91% | % of control [14]: 89% | % of control [15]: 82% | % of control [16]: 85% | % of control [17]: 85% | % of control [18]: 100%

CN(C)C/C=C/C(=O)Nc1ccc(C(=O)N2CCCC(Nc3ncc(Cl)c(-c4c[nH]c5ccccc45)n3)C2)cc1 (stereo not drawn)
% of control [19]: 99% | % of control [20]: 100% | % of control [21]: 88% | % of control [22]: 91% | % of control [23]: 92% | % of control [24]: 45% | % of control [25]: 94%

Reference: ChEMBL document CHEMBL5465560, “Selectivity Literature for EUbOPEN Chemogenomic Library” (2024)
